In test [1] the target is BTK C481S (His-TEV-hsBTK(328-659)(C481S)) (Homo sapiens (Human), UniProt Q06187, C481S). As to the kind of experiment: Assay B: microfluidic off-chip mobility shift assay against BTK C481S enzyme. The conditions noted are these: BTK C481S mutant. In kind it is biochemical. Here is the method: The mechanics of the assay platform are described by the vendor (PerkinElmer, Hopkinton, Mass.) on their website at the following URL: http://caliperls.com.
5 uL of enzyme buffer and 7.5 uL of ATP/KinKDR peptide substrate mix were added to Matrix (#4315) 384-well, sterile, flat-bottom polypropylene plates (Thermo Fisher Scientific, Hudson, N.H.) with 125 nL of serially diluted compounds prepared in 100% DMSO, and incubated for 90 min. at 25° C. Following the incubation period, reactions were terminated by adding 65 uL quench buffer consisting of 100 mM HEPES, pH 7.5, 0.015% Brij-35 (30%), 0.277% Coating Reagent #3 (PerkinElmer, Mountain View, Calif.), 5% DMSO. Terminated reactions were monitored at −2 PSI, −3000 V/−700 Volts in a LabChip 3000 plate reader from Caliper Life Sciences, a PerkinElmer Company (Hopkinton, Mass.), and the activity was quantified by laser-induced fluorescence measuring the charge/mass difference between substrate and product resulting from peptide phosphorylation. IC50 and efficacy were determined by plotting log [Inhibitor] vs. % Activity in GeneData Screener (Basel, Switzerland).

Test [2] addresses full-length human BTK (Homo sapiens (Human), UniProt Q06187). Nature of the test: Assay A: microfluidic off-chip mobility shift assay against BTK enzyme. The test is classed as biochemical. The method, then:
Assay A: Microfluidic Off-Chip Mobility Shift Assay Protocol for Potency Assessment Against BTK Enzyme
The protocol below describes microfluidic, off-chip mobility shift kinase assay to measure inherent potency of compounds against BTK enzyme.
5 uL of enzyme buffer and 7.5 uL of ATP/kinKDR peptide substrate mix were added to Matrix (#115304) 384-well, sterile, polypropylene plates (Thermo Fisher Scientific, Hudson, N.H.) with 125 nL of serially diluted compounds prepared in 100% DMSO, and incubated for 90 min. at 27° C. Following the incubation period, reactions were stopped by adding 60 uL stop buffer consisting of 100 mM HEPES, pH 7.5, 0.015% Brij-35 (30%), 0.277% Coating Reagent #3 (Caliper Life Sciences, Mountain View, Calif.), 5% DMSO. Stopped reactions were monitored at −2 PSI, −3000 V/−700 V in a LabChip 3000 plate reader from Caliper Life Sciences, a PerkinElmer Company (Hopkinton, Mass.), and the activity was measured by off-chip mobility shift assay measuring the charge/mass difference between substrate and product resulting from peptide phosphorilation. IC50 and efficacy were determined by plotting log [Inhibitor] vs. % Activity in GeneData Screener (Basel. Switzerland).

SMILES strings stand for the structures.

Chain of full-length human BTK (Q06187 whole entry): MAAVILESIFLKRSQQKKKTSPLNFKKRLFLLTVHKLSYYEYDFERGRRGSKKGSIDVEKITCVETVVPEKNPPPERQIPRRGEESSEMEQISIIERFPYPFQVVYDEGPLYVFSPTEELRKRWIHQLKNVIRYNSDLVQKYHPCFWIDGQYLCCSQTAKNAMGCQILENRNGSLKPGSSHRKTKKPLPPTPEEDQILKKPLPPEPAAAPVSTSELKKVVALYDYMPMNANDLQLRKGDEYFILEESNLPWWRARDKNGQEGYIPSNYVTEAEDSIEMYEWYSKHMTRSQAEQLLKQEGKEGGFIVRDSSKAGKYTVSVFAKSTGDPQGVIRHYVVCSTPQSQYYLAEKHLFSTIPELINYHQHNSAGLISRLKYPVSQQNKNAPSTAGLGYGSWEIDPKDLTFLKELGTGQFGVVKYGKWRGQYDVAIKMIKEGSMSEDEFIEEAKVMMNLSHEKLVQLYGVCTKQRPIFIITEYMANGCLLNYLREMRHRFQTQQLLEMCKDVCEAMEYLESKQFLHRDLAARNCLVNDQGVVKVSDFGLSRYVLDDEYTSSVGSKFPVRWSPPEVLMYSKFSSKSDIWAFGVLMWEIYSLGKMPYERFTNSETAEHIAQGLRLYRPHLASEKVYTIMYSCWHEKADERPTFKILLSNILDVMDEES
Chain of BTK C481S (His-TEV-hsBTK(328-659)(C481S)) (Q06187 328-659 C481S): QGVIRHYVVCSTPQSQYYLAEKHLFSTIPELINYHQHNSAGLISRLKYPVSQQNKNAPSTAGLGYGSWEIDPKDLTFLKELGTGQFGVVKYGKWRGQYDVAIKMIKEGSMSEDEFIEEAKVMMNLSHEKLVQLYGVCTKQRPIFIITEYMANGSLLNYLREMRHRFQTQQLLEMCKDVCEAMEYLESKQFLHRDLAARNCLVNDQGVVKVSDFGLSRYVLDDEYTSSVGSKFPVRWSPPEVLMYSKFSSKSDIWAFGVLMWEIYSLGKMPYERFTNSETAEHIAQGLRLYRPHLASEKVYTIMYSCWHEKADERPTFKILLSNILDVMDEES

The IC50 is the concentration that inhibits the measured activity by half. Take `CC(C)(C)c1nc(C(=O)Nc2cccc(-c3ccnc4[nH]c(-c5ccc(C(=O)N6CCOCC6)cc5)nc34)c2CO)no1` [Example 45, 5-tert-Butyl-N-[2-(hydroxymethyl)-3-(2-[4-[(morpholin-4-yl)carbonyl]phenyl]-3H-imidazo[4,5-b]pyridin-7-yl)phenyl]-1,2,4-oxadiazole-3-carboxamide]: the half-inhibitory concentration (IC50) in test [1] and in test [2] was under 100 nM each time.
With `Cn1cc(-c2nc3c(-c4ccc(Cn5ncc6cc(C(C)(C)C)cc(F)c6c5=O)c(F)c4)ccnc3[nH]2)cn1` [Example 99, 6-tert-Butyl-8-fluoro-2-{2-fluoro-4-[2-(1-methyl-1H-pyrazol-4-yl)-3H-imidazo[4,5-b]pyridin-7-yl]-benzyl}-2H-phthalazin-1-one], the IC50 in test [1] and in test [2] was under 100 nM throughout.
Take `Cn1cc(-c2nc3c(-c4cccc(NC(=O)c5noc(C6CC6)n5)c4CO)ccnc3[nH]2)cn1` [Example 44, 5-Cyclopropyl-N-[2-(hydroxymethyl)-3-[2-(1-methyl-1H-pyrazol-4-yl)-3H-imidazo[4,5-b]pyridin-7-yl]phenyl]-1,2,4-oxadiazole-3-carboxamide]: the half-maximal inhibitory concentration (IC50) was under 100 nM in test [1] and 1000 to 5000 nM in test [2].
The like results for `CC(C)(C)c1noc(C(=O)NCc2ccc(-c3ccnc4[nH]c(-c5ccncc5)nc34)cc2F)n1` [Example 150, 3-(tert-butyl)-N-(2-fluoro-4-(2-(pyridin-4-yl)-3H-imidazo[4,5-b]pyridin-7-yl)benzyl)-1,2,4-oxadiazole-5-carboxamide] were, in that order, under 100 nM and under 100 nM.
The like results for `Cn1cc(-c2nc3c(-c4cccc(NC(=O)c5noc(C(C)(C)C)n5)c4CO)ccnc3[nH]2)cn1` [Example 43, 5-tert-Butyl-N-[2-(hydroxymethyl)-3-[2-(1-methyl-1H-pyrazol-4-yl)-3H-imidazo[4,5-b]pyridin-7-yl]phenyl]-1,2,4-oxadiazole-3-carboxamide] were, in that order, 100 to 1000 nM and 100 to 1000 nM.
The like results for `Cn1cc(-c2nc3c(-c4ccc(CNC(=O)c5cnc(C6CC6)o5)c(F)c4)ccnc3[nH]2)cn1` [Example 18] were, in that order, under 100 nM and under 100 nM.
In the case of `CC(C)(C)c1noc(C(=O)NCc2ccc(-c3ccnc4[nH]c(-c5cccnc5)nc34)cc2F)n1` [Example 149, 3-(tert-butyl)-N-(2-fluoro-4-(2-(pyridin-3-yl)-3H-imidazo[4,5-b]pyridin-7-yl)benzyl)-1,2,4-oxadiazole-5-carboxamide], the concentration for half-maximal inhibition (IC50) in test [1] and in test [2] was under 100 nM in each case.
As for `CC(C)(C)c1cc(C(=O)NCc2ccc(-c3ccnc4[nH]c(C5CCNC(=O)C5)nc34)cc2F)no1` (centres unmarked) [Example 29, 5-tert-Butyl-isoxazole-3-carboxylic acid 2-fluoro-4-[2-(2-oxo-piperidin-4-yl)-3H-imidazo[4,5-b]pyridin-7-yl]-benzylamide], the figures for the half-maximal inhibitory concentration (IC50) in test [1] and in test [2] were 100 to 1000 nM and 1000 to 5000 nM, respectively.
The like results for `COc1ncccc1-c1nc2c(-c3ccc(CNC(=O)c4nc(C(C)(C)C)no4)c(F)c3)ccnc2[nH]1` [Example 151, 3-(tert-butyl)-N-(2-fluoro-4-(2-(2-methoxypyridin-3-yl)-3H-imidazo[4,5-b]pyridin-7-yl)benzyl)-1,2,4-oxadiazole-5-carboxamide] were, in that order, under 100 nM and under 100 nM.
On to `CC(C)(C)c1nc(C(=O)NCc2ccc(-c3ccnc4[nH]c(C5CCNC(=O)C5)nc34)cc2F)no1` (centres unmarked) [Example 30, 5-tert-Butyl-[1,2,4]oxadiazole-3-carboxylic acid 2-fluoro-4-[2-(2-oxo-piperidin-4-yl)-3H-imidazo[4,5-b]pyridin-7-yl]-benzylamide], for which the IC50 in test [1] was in the range of 100 to 1000 nM; in test [2], 1000 to 5000 nM.
The like results for `Cc1cc(-c2ccnc3[nH]c(-c4cnn(C)c4)nc23)ccc1CNC(=O)C(N)=O` [Example 101, N-{2-Methyl-4-[2-(1-methyl-1H-pyrazol-4-yl)-3H-imidazo[4,5-b]pyridin-7-yl]-benzyl}-oxalamide] were, in that order, 1000 to 5000 nM and 1000 to 5000 nM.
In the case of `Cn1cc(-c2nc3c(-c4ccc(C(C)(C)NC(=O)C(N)=O)c(F)c4)ccnc3[nH]2)cn1` [Example 102, N-(1-{2-Fluoro-4-[2-(1-methyl-1H-pyrazol-4-yl)-3H-imidazo[4,5-b]pyridin-7-yl]-phenyl}-1-methyl-ethyl)-oxalamide], the IC50 in test [1] and in test [2] was 1000 to 5000 nM in each case.
`Cn1cc(-c2nc3c(-c4ccc(CNS(=O)(=O)CC5(CC#N)CC5)c(F)c4)ccnc3[nH]2)cn1` [Example 177, 1-(1-(cyanomethyl)cyclopropyl)-N-(2-fluoro-4-(2-(1-methyl-1H-pyrazol-4-yl)-3H-imidazo[4,5-b]pyridin-7-yl)benzyl)methanesulfonamide]: the IC50 in test [2] fell in the range of 1000 to 5000 nM.
The same measure, in the same setting: under `CC(C)(C)c1nc(C(=O)NCc2ccc(-c3ccnc4[nH]c(-c5ccc(N6CCC(F)CC6)cn5)nc34)cc2F)no1` [Example 167, 5-tert-butyl-N-[(2-fluoro-4-[2-[5-(4-fluoropiperidin-1-yl)pyridin-2-yl]-3H-imidazo[4,5-b]pyridin-7-yl]phenyl)methyl]-1,2,4-oxadiazole-3-carboxamide] stands under 100 nM; under `Cn1cc(-c2nc3c(-c4ccc(CNCc5ccc(C(C)(C)C)cc5)c(F)c4)ccnc3[nH]2)cn1` [Example 181, N-(4-(tert-butyl)benzyl)-1-(2-fluoro-4-(2-(1-methyl-1H-pyrazol-4-yl)-3H-imidazo[4,5-b]pyridin-7-yl)phenyl)methanamine], over 5000 nM; under `Cn1cc(-c2nc3c(-c4ccc5c(c4)CCN(C(=O)c4nc(C(C)(C)C)no4)C5)ccnc3[nH]2)cn1` [Example 154, (3-tert-Butyl-[1,2,4]oxadiazol-5-yl)-{6-[2-(1-methyl-1H-pyrazol-4-yl)-3H-imidazo[4,5-b]pyridin-7-yl]-3,4-dihydro-1H-isoquinolin-2-yl}-methanone], over 5000 nM.
Turning to `Cn1cc(-c2nc3c(-c4ccc(CNCc5cccc(C(C)(C)C)c5)c(F)c4)ccnc3[nH]2)cn1` [Example 180, N-(3-(tert-butyl)benzyl)-1-(2-fluoro-4-(2-(1-methyl-1H-pyrazol-4-yl)-3H-imidazo[4,5-b]pyridin-7-yl)phenyl)methanamine], the IC50 in test [2] was over 5000 nM.
On to `CN(C)c1ccc(-c2nc3c(-c4ccc(CNC(=O)c5nnc(C(C)(C)C)o5)c(F)c4)ccnc3[nH]2)nc1` [Example 172, 5-tert-butyl-N-[(4-[2-[5-(dimethylamino)pyridin-2-yl]-3H-imidazo[4,5-b]pyridin-7-yl]-2-fluorophenyl)methyl]-1,3,4-oxadiazole-2-carboxamide], for which the IC50 in test [2] was under 100 nM.
The same measure, in the same setting: under `Cc1cc(-c2ccnc3[nH]c(-c4ccc(OCC(O)CO)cn4)nc23)ccc1CN1CCOc2cc(C3CC3)cc(F)c2C1=O` (centres unmarked) [Example 170, 8-cyclopropyl-4-[(4-[2-[5-(2,3-dihydroxypropoxy)pyridin-2-yl]-3H-imidazo[4,5-b]pyridin-7-yl]-2-methylphenyl)methyl]-6-fluoro-2,3,4,5-tetrahydro-1,4-benzoxazepin-5-one] stands under 100 nM.
The same measure, in the same setting: under `Cn1cc(-c2nc3c(-c4ccc(C5(NC(=O)c6nnc(C(C)(C)C)o6)CC5)cc4)ccnc3[nH]2)cn1` [Example 97, 5-tert-Butyl-[1,3,4]oxadiazole-2-carboxylic acid (1-{4-[2-(1-methyl-1H-pyrazol-4-yl)-3H-imidazo[4,5-b]pyridin-7-yl]-phenyl}-cyclopropyl)-amide] stands under 100 nM.
The same measure, in the same setting: under `CN1CCC(c2ccc(-c3nc4c(-c5ccc(CNC(=O)c6noc(C(C)(C)C)n6)c(F)c5)ccnc4[nH]3)nc2)CC1` [Example 169, 5-tert-butyl-N-[(2-fluoro-4-[2-[5-(1-methylpiperidin-4-yl)pyridin-2-yl]-3H-imidazo[4,5-b]pyridin-7-yl]phenyl)methyl]-1,2,4-oxadiazole-3-carboxamide] stands under 100 nM; under `Cn1cc(-c2nc3c(-c4ccc(CNS(=O)(=O)CC5CCCS(=O)(=O)C5)c(F)c4)ccnc3[nH]2)cn1` (centres unmarked) [Example 179, 1-(1,1-dioxidotetrahydro-2H-thiopyran-3-yl)-N-(2-fluoro-4-(2-(1-methyl-1H-pyrazol-4-yl)-3H-imidazo[4,5-b]pyridin-7-yl)benzyl)methanesulfonamide], over 5000 nM.
With `Cn1cc(-c2nc3c(-c4ccc(CNS(C)(=O)=O)c(F)c4)ccnc3[nH]2)cn1` [Example 176, N-(2-fluoro-4-(2-(1-methyl-1H-pyrazol-4-yl)-3H-imidazo[4,5-b]pyridin-7-yl)benzyl)methanesulfonamide], the half-inhibitory concentration (IC50) in test [2] is over 5000 nM.
